According to patent US20140038967A1, “NOVEL USE FOR IMIDAZOTRIAZINONES” (ALGIAX PHARMACEUTICALS GMBH, priority 2011, published 2014):

Columns and labels:
[1] = test system: severe spinal cord contusion injury; assay: BBB open field locomotor rating scale after severe spinal cord contusion injury, intrathecal treatment; assay type: in vivo, Lewis rats
Protocol: Intrathecal treatment with a imidazotriazinone after severe spinal cord contusion injury in the rat.
(§1) Thirteen week-old female Lewis rats (Charles River, Sulzfeld Germany) were housed under a 12:12 h dark/light regime and allowed free access to water and food. After one week of habituation the animals underwent general anesthesia with a mixture of isoflurane and air (induction: 5% isoflurane, maintenance: 2.2% isofluorane). A T8 laminectomy was performed without rupturing the dura and a severe contusive SCI (25 gcm NYU/MASCIS II impactor) {Gruner, 1992 #3} was induced. Thereafter, the surgery continued with the procedure to position the silicon tube intrathecal catheter (7740, Alzet). Firstly, the catheter was filled with either the active or the vehicle solution. Secondly, another laminectomy was performed, again without rupturing the dura, at T11. At this position a small incision was made into the dura and the catheter was inserted at thoracic level 11 and pushed forward under lamina of T10-T9 to the lesion site at T8. […]
(§2) The BBB Open Field Locomotor Rating Scale: • The BBB locomotor rating scale was used to assess general locomotor performance (Basso et al., 1995). The score was assessed before injury and at 1, 3, 5, 7, 14, 21, 35, 42, 49, 56 and 63 days post operation (dpo) by 2 blinded observers.

embryonic DRG explants = assay: Axonal growth and Schwann cell expansion in embryonic DRG explants; assay type: cell-based, Wistar rat
Protocol: In vitro experiments with an imidazotriazinone to improve axonal growth and Schwann cell expansion in embryonic DRG explants of rats.
Outgrowth studies with 7-(4-tert-butylcyclohexyl)-5-ethyl-2-phenylimidazo[5,1-f][1,2,4]triazin-4(3H)-one or the vehicle were performed on embryonic neural tissue. DRGs of thoracic, lumbar, and sacral levels were prepared from Wistar rat embryos E18-20 and processed in ice cold 0.6% glucose in PBS. Harvested DRGs were freed from attaching nerve fibres, dissected, and transferred onto poly-D-lysine- and laminin-coated glass coverlips. To avoid cluster formation, a maximum of two DRG explants was transferred onto a single glass coverslip. Following an initial attachment phase, the pre-incubation medium was replaced by fully supplemented growth medium spiked with the test item (7-(4-tert-butylcyclohexyl)-5-ethyl-2-phenylimidazo[5,1-f][1,2,4]triazin-4(3H)-one groups 2 and 3) or vehicle (DMF, group 1) and incubated at 37° C./10% CO2 for additional 22 hours in vitro. Following 22 hours in vitro, the DRG explants were fluorescently labelled and axonal growth and Schwann cell expansion were quantitatively assessed.
The following experimental groups were included into the study: • Fully supplemented growth medium with 0.1% vehicle. • Fully supplemented growth medium with 0.1% vehicle and 7-(4-tert-butylcyclohexyl)-5-ethyl-2-phenylimidazo[5,1-f][1,2,4]triazin-4(3H)-one at a final concentration of 0.01 μM. • Fully supplemented growth medium with 0.1% vehicle and 7-(4-tert-butylcyclohexyl)-5-ethyl-2-phenylimidazo[5,1-f][1,2,4]triazin-4(3H)-one at a final concentration of 0.1 μM. • Fully supplemented growth medium with 0.1% vehicle and 7-(4-tert-butylcyclohexyl)-5-ethyl-2-phenylimidazo[5,1-f][1,2,4]triazin-4(3H)-one at a final concentration of 1 μM.

[2] = test system: severe spinal cord contusion injury; assay: BBB open field locomotor rating scale after severe spinal cord contusion injury, oral treatment; assay type: in vivo, Lewis rats
Protocol: as §2
Oral Treatment with a Imidazotriazinone after Severe Spinal Cord Contusion Injury in the Rat.
Thirteen week-old female Lewis rats (Charles River, Sulzfeld Germany) were housed under a 12:12 h dark/light regime and allowed free access to water and food. After one week of habituation the animals underwent general anesthesia with a mixture of isoflurane and air (induction: 5% isoflurane, maintenance: 2.2% isofluorane). A Th10 laminectomy was performed without rupturing the dura and a severe contusive SCI (25 gcm NYU/MASCIS II impactor) (Gruner, 1992) was induced. After suturing muscle and skin, a subcutaneous (s.c.) injection of 5 ml of Ringers Lactate was given. Bladders were emptied manually 2 times a day until spontaneous voiding returned (usually within 1 week). The lesion severity was verified by the impact velocity and contusion depth of the impactor rod. Animals with an impact velocity error >5% were excluded from further analysis. After injury, individual rats were randomly assigned into a treatment group. The following groups were used: […]

[3] = test system: severe spinal cord contusion injury; assay: Explorative rearing test after severe spinal cord contusion injury, intrathecal treatment; assay type: in vivo, Lewis rats; conditions: intrathecal 100 μM over 14 days
Protocol: as §1, with “T8. The catheter was then cut at the appropriate length and connected to a filled osmotic minipump (Alzet, model 2002) which was placed subcutaneously. The overlying tissue was sutured, and a subcutaneous (s.c.) injection of 5 ml of Ringers Lactate was given. The different solutions (active or vehicle) were infused at a flow rate of 0.5 μl/h over a time period of 14 days.” for “T8.”
When placed in a Plexiglas cylinder (18 cm diameter×35.0 cm height), animals spontaneously rear and contact the walls with their forepaws. Numbers, duration and types of rears were analyzed during the 3-min recorded observation period in the cylinder (Himes et al., 2006; Shumsky et al., 2003). […] The testing session was videotaped, and rearing behaviour was scored blindly at a later date. […]
Occasionally an animal progressed through several types of rears before touching down, in which case the time the animal spend in each rearing height was measured by counting the single video frames. Data were expressed as number of attempts (rears), attempt duration and the time each animal spend in the different rearing heights.

[4] = tested 0.01, 0.1 and 1 μM, 22 hours in vitro
[5] = compared to vehicle control animals (FIG. 3)

Question: For CCc1nc(C2CCC(C(C)(C)C)CC2)n2nc(-c3ccccc3)[nH]c(=O)c12 (stereo not drawn) [7-(4-tert-butylcyclohexyl)-5-ethyl-2-phenylimidazo[5,1-f][1,2,4]triazin-4(3H)-one], which “BBB locomotor rating scale, treatment effect over the entire time-period of the assessment” value ([1]; intrathecal 100 μM, 0.5 μl/h over 14 days, ANOVA-RM p=0.013 vs vehicle (FIG. 2)) is on record?
Answer: significant effect

Question: What about the “functional recovery after severe spinal cord contusion (overall, example 2)” value ([1]; intrathecal treatment, rat) of the same molecule?
Answer: significantly improves functional recovery

Question: And the “Schwann cell numbers compared to vehicle-treated cultures” value (embryonic DRG explants; 0.01-1 μM, 22 hours in vitro)?
Answer: increased nearly fourfold

Question: What about the “Schwann cell expansion (numbers of Schwann cells outside the DRG explant core)” value (embryonic DRG explants; 0.01-1 μM, 22 hours in vitro (FIG. 1B)) of the same molecule?
Answer: significant increase

Question: What about the “growth area of outgrowing axons” value (embryonic DRG explants; 0.01-1 μM, 22 hours in vitro, compared to vehicle-treated cultures (FIG. 1A)) of the same molecule?
Answer: significant increase

Question: And the “concentration at which Schwann cell numbers were highest” value (embryonic DRG explants; [4])?
Answer: 0.1 µM

Question: And the “concentration at which elevation of axonal growth areas was highest” value (embryonic DRG explants; [4])?
Answer: 0.1 µM

Question: And the “BBB score at steady state” value ([2]; 10 mg in vehicle, vehicle animals 7.8 (FIG. 4))?
Answer: 9.0

Question: What about the “BBB score at the end of the experiment compared to vehicle controls” value ([2]; 10 mg, DPO 56, Students T-Test p=0.0012 (FIG. 5)) of the same molecule?
Answer: performed significantly better

Question: What about the “duration of rearing attempts” value [3, 5] of the same molecule?
Answer: longer in time

Question: And the “height reached by forepaws in rearing attempts” value [3, 5]?
Answer: reached much higher

Question: And the “types of rears performed” value ([3]; vehicle animals only crouch or rear)?
Answer: able to perform standing and even reaching
